Reference: EP1247528A1, “Pharmaceutical or cosmetic compositions containing extracts from Arachis hypogaea L” (Cognis France S.A., priority 2001, dated 2002)

Columns and labels:
Xanthin Oxidase [1] = assay: Luminol + Microperoxydase test (xanthine oxidase system); type: biochemical
Excerpt: (§1) Die optische Dichte des Extraktes lag bei 513 nm. Als erstes Testsubstrat wurde Diphenylpicrylhydrazyl (DPPH) gewählt, ein purpurrot gefärbtes stabiles Radikal, welches durch Inkontaktbringen mit Radikalfängern in sein ungefärbtes Leucoderivat übergeht. Der Farbwechsel kann photometrisch verfolgt werden. Die Meßergebnisse sind in Tabelle 2 zusammengefaßt ("DPPH-Test").. In einem weiteren Test wurde Xanthin Oxidase als Testsystem gewählt. Das Enzym bewirkt bei oxidativem Stress die Umwandlung von Purinbasen, wie z.B. Adenin oder Guanin in […], wobei die intermediär gebildeten Sauerstoffradikale durch Reaktion mit Luminol über die Lumineszenz nachgewiesen und quantitativ bestimmt werden können. In Gegenwart von Substanzen mit radikalfangenden Eigenschaften vermindert sich die Lumineszenzausbeute. Der NBT-Wert bestimmt den Gehalt von […], welches aus NBT durch das Sauerstoffradikal gebildet wird. Die optische Dichte wurde bei 540 nm bestimmt.
(§2) Diese Ergebnisse sind in Tabelle 3 zusammengefaßt; wieder ist die Inhibierung in %-absolut angegeben ("Luminol-Test"). Tab.

[2] = DPPH-Test (chemical test, activity against free radicals)
Excerpt: as §1

Xanthin Oxidase [3] = assay: Luminol-Test (xanthine oxidase system, luminescence); type: biochemical
Excerpt: as §1, §2

Xanthin Oxidase [4] = assay: NBT test (xanthine oxidase system, optical density at 540 nm); type: biochemical
Excerpt: as §1, §2

humanen Fibroblasten = assay: Cell protection against UVA on human fibroblasts cultured in vitro; type: cell-based; details: UVA 20 J/cm^2; 0,0003 % test substance
Experimental: Methode: Zur Durchführung dieser Tests wurde ein definiertes Kulturmedium mit den Fibroblasten mit fötalem Kälberserum beimpft und der Pflanzenextrakt (in dem definierten Medium mit 10 % Fötalem Kälberserum) 72 Stunden nach dem Beimpfen zugegeben.
Nach 48 stündiger Inkubation bei 37 °C und einem CO2-Gehalt von 5 % wurde das Kulturmedium durch Saline-Lösung (physiologische NaCI-Lösung) ersetzt und die Fibroblasten wurden mit einer UVA-Dosis bestrahlt (365 nm, 20 J/cm^2; Röhren: MAZDA FLUOR TFWN40).
Nach der Beendigung der Bestrahlung wurde der MDA-Spiegel (Malonaldialdehyd-Spiegel) in der überstehenden Natriumchlorid-Lösung quantitativ durch Reaktion mit Thiobarbitursäure bestimmt.
Außerdem wurde der Gehalt an Proteinen nach der Methode von Bradford bestimmt und der Gehalt an GSH untersucht wobei es sich um reduziertes Glutathion handelt. Der Gehalt an GSH wurde bstimmt nach der Methode von Hissin (Hissin PJ, Hilf R., A fluorometric method for determination of oxydised and reduced glutathione tissues, Anal. Biochem. 74, 214-226, 1976). Tab.

[5] = Antioxidative capacity: inhibition of lipid peroxidation in liposomes (AOP50); type: biochemical; details: concentration at which lipid peroxidation is reduced by 50 %; Fe(II) ascorbate, 37 °C, 45 min, MDA-thiobarbituric acid at 532 nm
Experimental: Als Maß für die antioxidative Kapazität der Erdnusshäutchen Extrakte wurde ihre Fähigkeit bestimmt, die Lipidperoxidation in Liposomen zu verhindern. Dazu wurde eine 0,2 Gew.-%ige Liposomen Suspension aus Sojalecithin in Phosphatpuffer hergestellt. Die Lipidperoxidation wurde durch Zugabe eines Eisen(II)ascorbat Komplexes (10mM Fe(II)SO4, 50 mM Ascorbat) initiiert. Die Inkubation wurde bei 37 °C für 45 min. durchgeführt. Als Endprodukt der Lipidperoxidation entsteht Malondialdeyd, welches über eine Farbreaktion mit Thiobarbitursäure quantifiziert wird (photometrische Bestimming des Malondialdehyd-Thiobarbitursäure Komplexes bei 532 nm). Zur Bestimmung der antioxidativen Kapazität der Erdnusshäutchen Extrakte wurden diese in unterschiedlichen Konzentration vor der Zugabe des Eisen(II)ascorbat Komplexes zum Inkubationsansatz gegeben. Ermittelt wurde die Konzentration an Pflanzenextrakt (in µg/ml), bei der die Lipidperoxidation um 50 % verringert ist (= AOP50) im Vergleich zur Bestimmung ohne Zusatz an Pflanzenextrakt. D.h. je geringer die angegebene Konzentration AOP50, desto höher ist die antioxidative Kapazität des untersuchten Erdnussextraktes. Als Referenzsubstanz diente das Antioxidans n-Propylgallat. Tab.

[6] = Electron spin resonance spectroscopy (ESR), radical scavenging with spin trap DMPO; details: 5 mM solution (comparison)
Excerpt: Die Methode der Elektronenspinresonanz Spektroskopie beruht auf dem Prinzip der Generierung kurzlebiger Radikale über chemische Radikalgeneratoren, der Stabilisierung und Akkumulierung der Radikale mittels Radikalfänger (Spin-Trapper-Substanzen) und der Detektion der für die einzelnen Radikale typischen ESR-Spektren. Die radikalfangenden Eigenschaften der zu untersuchenden Substanzen werden durch die Abnahme der Signalintensitäten der getrappten Radikale charakterisiert. Im vorliegenden Fall wurde als Radikal Fänger (Spin Trapper) DMPO (5,5-Dimethyl-1-pyrrolin-N-oxid) verwendet. Die Signalintensität des mit Hilfe des DMPO gebildeten stabilen DMPO-Hydroxyadduktes wurde 100 % gesetzt. Die Abnahme dieses Signals in Abhängigkeit von der Konzentration des eingesetzten Pflanzenextraktes, ist ein Nachweis für die Radikal fangenden Eigenschaften der Extrakte.
Der Extrakt aus Beispiel 1 wurde mittels der ESR Spektroskopie untersucht. Bereits in einer Konzentration von 0,01 Gew.-% führte dieser Extrakt zu einer Abnahme des DMPO-Hydroxyaddukt Signals um 79 % auf ein Restsignal von 21 %. Bei einer Konzentration von 0,05 % zeigte sich eine Abnahme des Signals um 89 % und bei einer Konzentration von 0,5 % fand eine völlige Löschung des Signals statt. Als Vergleich diente eine 5 mM α-Tocopherol Lösung, die eine Abnahme des Signals um 65 % bewirkte.

[7] = test system: menschlichen Keratinozyten; assay: Cell protection against UVB on human keratinocytes cultured in vitro; type: cell-based; details: UVB 50 mJ/cm^2; 0,03 % test substance
Experimental: Methode: Der Effekt von UVB-Strahlung wurde an Keratinocyten in vitro untersucht indem die Freisetzung des Cytoplasaenzyms LDH (Lactat Dehydrogenase) bestimmt wurde. Dieses Enzym dient als Marker für eine Zellschädigung.
Zur Durchführung der Tests wurde ein definiertes Medium, das fötales Kälberserum enthält, mit den Keratinozyten beimpft und der Pflanzenextrakt (mit Saline-Lösung verdünnt) 72 Stunden nach dem Beimpfen zugegeben. […]
Nach weiterer 1 tägiger Inkubation bei 37 °C und bei 5 % CO2 wurde der LDH-Gehalt im Überstand bestimmt. Der Gehalt von LDH- (Lactatdehydrogenase) wurde mittels einer Enzymreaktion bestimmt (verwendetes Kit zur Untersuchung des LDH Gehaltes von der Firma Roche). Die Anzahl adhärenter Keratinozyten wird (nach Trypsinbehandlung) mit einem Partikelzählgerät bestimmt. Tab.

Row | EC50 in % Luminol + Microperoxydase (Xanthin Oxidase [1]) | EC50 in % DPPH-Test [2] | EC50 in % Luminol (Xanthin Oxidase [3]) | EC50 in % NBT (Xanthin Oxidase [4]) | Compound | also measured
1 | 0,0058% | 0,0013% | 0,0006% | 0,5909% | O=C1O[C@H]([C@@H](O)CO)C(O)=C1O [Ascorbinsäure] | –
2 | Kein Effekt bis zu 1% | 0,0067% | Kein Effekt bis zu 1% | Kein Effekt bis zu 1% | Tocopherol | Freigesetzter MDA (humanen Fibroblasten): 19 % im Vergleich zur Kontrolle; GSH/Protein (humanen Fibroblasten): 77 % im Vergleich zur Kontrolle; Zellproteine (humanen Fibroblasten): 95 % im Vergleich zur Kontrolle
3 | – | – | – | – | CCCOC(=O)c1cc(O)c(O)c(O)c1 [n-Propylgallat] | AOP50 [5]: 2,9 µg/ml
4 | – | – | – | – | Cc1c(C)c2c(c(C)c1O)CC[C@@](C)(CCC[C@H](C)CCC[C@H](C)CCCC(C)C)O2 [α-Tocopherol] | Abnahme des Signals [6]: 65%
5 | – | – | – | – | CC(=O)Oc1ccccc1C(=O)O [Aspirin] | Anzahl Keratinocyten [7]: 52 % im Vergleich zur Kontrolle; Gehalt an LDH [7]: 46 % im Vergleich zur Kontrolle; Gehalt an PGE2 [7]: 4 % im Vergleich zur Kontrolle
